# Legend:
# pigweed, palmer [1] = test: Test A preemergence; assay type: in vivo, Amaranthus palmeri; settings: visual injury after 10 days, 0 to 100 scale, 0 is no effect, 100 is complete control
# Outline: (§1)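 Plants were grown in loam and sand and treated preemergence or postemergence (one- to two-leaf stage, 2–10 cm) with compound in solvent plus surfactant. Response was scored against untreated controls after 10 greenhouse days, where 0 means no effect and 100 complete control.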
# ragweed [2] = test: Test A preemergence; assay type: in vivo, Ambrosia artemisiifolia; settings: visual injury after 10 days, 0 to 100 scale, 0 is no effect, 100 is complete control
# Outline: as §1
# galium = test: Test A postemergence; assay type: in vivo, Galium aparine; settings: postemergence, 10 days
# Outline: as §1
# soybean [3] = test: Test A preemergence; assay type: in vivo, Glycine max; settings: visual injury after 10 days, 0 to 100 scale, 0 is no effect, 100 is complete control
# Outline: as §1
# rice = test: Test B flooded paddy test; assay type: in vivo, Oryza sativa; settings: 250 g ai/ha, Flood, 13 days, 0 to 100 scale (0 no effect, 100 complete control)
# Outline: (§2)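 Application into standing water (3 cm above soil) at the two-leaf stage; flood depth held constant. Evaluation: day 13, visual comparison with controls, 0 = no injury, 100 = complete control.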
# ryegrass, Italian [4] = test: Test A postemergence; assay type: in vivo, Lolium multiflorum; settings: postemergence, 10 days
# Outline: as §1
# kochia [5] = test: Test A postemergence; assay type: in vivo, Bassia scoparia; settings: postemergence, 10 days
# Outline: as §1
# kochia [6] = test: Test A preemergence; assay type: in vivo, Bassia scoparia; settings: visual injury after 10 days, 0 to 100 scale, 0 is no effect, 100 is complete control
# Outline: as §1
# horseweed = test: Test A postemergence; assay type: in vivo, Erigeron canadensis; settings: postemergence, 10 days
# Outline: as §1
# ryegrass, Italian [7] = test: Test A preemergence; assay type: in vivo, Lolium multiflorum; settings: visual injury after 10 days, 0 to 100 scale, 0 is no effect, 100 is complete control
# Outline: as §1
# oat, wild [8] = test: Test A postemergence; assay type: in vivo, Avena fatua; settings: postemergence, 10 days
# Outline: as §1
# corn [9] = test: Test A postemergence; assay type: in vivo, Zea mays; settings: postemergence, 10 days
# Outline: as §1
# sedge, umbrella = test: Test B flooded paddy test; assay type: in vivo, Cyperus difformis; settings: 250 g ai/ha, Flood, 13 days, 0 to 100 scale (0 no effect, 100 complete control)
# Outline: as §2
# soybean [10] = test: Test A postemergence; assay type: in vivo, Glycine max; settings: 500 g ai/ha, postemergence, 10 days, visual injury, 0 to 100 scale (0 no effect, 100 complete control)
# Outline: as §1
# corn [11] = test: Test A preemergence; assay type: in vivo, Zea mays; settings: visual injury after 10 days, 0 to 100 scale, 0 is no effect, 100 is complete control
# Outline: as §1
# oat, wild [12] = test: Test A preemergence; assay type: in vivo, Avena fatua; settings: visual injury after 10 days, 0 to 100 scale, 0 is no effect, 100 is complete control
# Outline: as §1
# barnyardgrass [13] = test: Test A postemergence; assay type: in vivo, Echinochloa crusgalli; settings: postemergence, 10 days
# Outline: as §1
# wheat [14] = test: Test A postemergence; assay type: in vivo, Triticum aestivum; settings: postemergence, 10 days
# Outline: as §1
# ducksalad = test: Test B flooded paddy test; assay type: in vivo, Heteranthera limosa; settings: 250 g ai/ha, Flood, 13 days, 0 to 100 scale (0 no effect, 100 complete control)
# Outline: as §2
# barnyardgrass [15] = test: Test B flooded paddy test; assay type: in vivo, Echinochloa crus-galli; settings: 250 g ai/ha, Flood, 13 days, 0 to 100 scale (0 no effect, 100 complete control)
# Outline: as §2
# wheat [16] = test: Test A preemergence; assay type: in vivo, Triticum aestivum; settings: visual injury after 10 days, 0 to 100 scale, 0 is no effect, 100 is complete control
# Outline: as §1
# blackgrass [17] = test: Test A preemergence; assay type: in vivo, Alopecurus myosuroides; settings: visual injury after 10 days, 0 to 100 scale, 0 is no effect, 100 is complete control
# Outline: as §1
# pigweed, palmer [18] = test: Test A postemergence; assay type: in vivo, Amaranthus palmeri; settings: postemergence, 10 days
# Outline: as §1
# ragweed [19] = test: Test A postemergence; assay type: in vivo, Ambrosia artemisiifolia; settings: postemergence, 10 days
# Outline: as §1
# foxtail, giant [20] = test: Test A postemergence; assay type: in vivo, Setaria faberi; settings: postemergence, 10 days
# Outline: as §1
# foxtail, giant [21] = test: Test A preemergence; assay type: in vivo, Setaria faberi; settings: visual injury after 10 days, 0 to 100 scale, 0 is no effect, 100 is complete control
# Outline: as §1
# barnyardgrass [22] = test: Test A preemergence; assay type: in vivo, Echinochloa crusgalli; settings: visual injury after 10 days, 0 to 100 scale, 0 is no effect, 100 is complete control
# Outline: as §1
# blackgrass [23] = test: Test A postemergence; assay type: in vivo, Alopecurus myosuroides; settings: postemergence, 10 days
# Outline: as §1
# [24] = 125 g ai/ha, 0 to 100 scale, 0 no effect, 100 complete control
# [25] = 500 g ai/ha, visual injury, 0 to 100 scale (0 no effect, 100 complete control)
structure (smiles),measurement,setting,value
C=CCOc1ccc(-n2cnc(C(C)C)n2)cc1C(=O)N1C[C@H](C)Oc2c(Cl)cccc21 [Compound 110],"Plant response rating, Pigweed, Palmer","pigweed, palmer [1]; 125 g ai/ha",90
same,"Plant response rating, Pigweed, Palmer","pigweed, palmer [1]; 500 g ai/ha",100
same,"Plant response rating, Ragweed",ragweed [2]; 125 g ai/ha,0
same,"Plant response rating, Ragweed",ragweed [2]; 500 g ai/ha,40
same,Galium plant response rating,galium; [24],100
same,"Plant response rating, Galium",galium; [25],100
same,"Plant response rating, Soybean",soybean [3]; 125 g ai/ha,40
same,"Plant response rating, Soybean",soybean [3]; 500 g ai/ha,60
same,"Plant response rating, Rice",rice,0
same,"Ryegrass, Italian plant response rating","ryegrass, Italian [4]; [24]",20
same,"Plant response rating, Ryegrass, Italian","ryegrass, Italian [4]; [25]",80
same,Kochia plant response rating,kochia [5]; [24],70
same,"Plant response rating, Kochia",kochia [5]; [25],90
same,"Plant response rating, Kochia",kochia [6]; 125 g ai/ha,0
same,"Plant response rating, Kochia",kochia [6]; 500 g ai/ha,20
same,Horseweed plant response rating,horseweed; [24],0
same,"Plant response rating, Horseweed",horseweed; [25],0
same,"Plant response rating, Ryegrass, Italian","ryegrass, Italian [7]; 125 g ai/ha",70
same,"Plant response rating, Ryegrass, Italian","ryegrass, Italian [7]; 500 g ai/ha",100
same,"Oat, Wild plant response rating","oat, wild [8]; [24]",0
same,"Plant response rating, Oat, Wild","oat, wild [8]; [25]",30
same,Corn plant response rating,corn [9]; [24],10
same,"Plant response rating, Corn",corn [9]; [25],50
same,"Plant response rating, Sedge, Umbrella","sedge, umbrella",65
same,"Plant response rating, Soybean",soybean [10],100
same,"Plant response rating, Corn",corn [11]; 125 g ai/ha,0
same,"Plant response rating, Corn",corn [11]; 500 g ai/ha,50
same,"Plant response rating, Oat, Wild","oat, wild [12]; 125 g ai/ha",0
same,"Plant response rating, Oat, Wild","oat, wild [12]; 500 g ai/ha",50
same,Barnyardgrass plant response rating,barnyardgrass [13]; [24],20
same,"Plant response rating, Barnyardgrass",barnyardgrass [13]; [25],50
same,Wheat plant response rating,wheat [14]; [24],10
same,"Plant response rating, Wheat",wheat [14]; [25],20
same,"Plant response rating, Ducksalad",ducksalad,0
same,"Plant response rating, Barnyardgrass",barnyardgrass [15],55
same,"Plant response rating, Wheat",wheat [16]; 125 g ai/ha,20
same,"Plant response rating, Wheat",wheat [16]; 500 g ai/ha,30
same,"Plant response rating, Blackgrass",blackgrass [17]; 125 g ai/ha,40
same,"Plant response rating, Blackgrass",blackgrass [17]; 500 g ai/ha,70
same,"Pigweed, Palmer plant response rating","pigweed, palmer [18]; [24]",40
same,"Plant response rating, Pigweed, Palmer","pigweed, palmer [18]; [25]",50
same,Ragweed plant response rating,ragweed [19]; [24],10
same,"Plant response rating, Ragweed",ragweed [19]; [25],60
same,"Foxtail, Giant plant response rating","foxtail, giant [20]; [24]",40
same,"Plant response rating, Foxtail, Giant","foxtail, giant [20]; [25]",90
same,"Plant response rating, Foxtail, Giant","foxtail, giant [21]; 125 g ai/ha",90
same,"Plant response rating, Foxtail, Giant","foxtail, giant [21]; 500 g ai/ha",100
same,"Plant response rating, Barnyardgrass",barnyardgrass [22]; 125 g ai/ha,50
same,"Plant response rating, Barnyardgrass",barnyardgrass [22]; 500 g ai/ha,90
same,Blackgrass plant response rating,blackgrass [23]; [24],0
same,"Plant response rating, Blackgrass",blackgrass [23]; [25],50
